# According to publication PMC5399447, “Neuroprotective pentapeptide CN-105 is associated with reduced sterile inflammation and improved functional outcomes in a traumatic brain injury murine model” (Scientific Reports, 2017):
# Tests used:
# [1] = test system: murine closed head injury model (TBI); experiment: Morris Water Maze after closed head injury; assay type: in vivo, mouse
# Source text: The murine closed head injury model used in this study was previously described. The closed head impact results in injury to selectively vulnerable neurons in cortex and hippocampus, and is associated with vestibulomotor deficits and long term neurocognitive deficits. Although animals do lose body weight, they rapidly regain spontaneous ventilation, righting reflex, and the ability to ambulate. Briefly, 12–14 week-old C57Bl/6 J male mice(Jackson Laboratories, Bar Harbor, ME) were used. The trachea was intubated after anesthesia induction with 4.6% isoflurane and the lungs were mechanically ventilated with 1.6% isoflurane in 30% O2/70% N2. Core body temperature was maintained at 37 °C through a rectal probe. To avoid basilar skull fracture, ear bars are not used. The animal was secured in a stereotactic device in a prone position on a molded acrylic cast with surgical tape across the shoulders. The intubation tube was also secured to the acrylic cast with tape. The acrylic cast is designed to allow the mouse to have 3 mm of space below the head to allow for acceleration/decelaration of the head in this position. The head was shaved and the scalp was incised to expose the skull and identify anatomical landmarks. A concave 3-mm metallic disc was adhered to the skull immediately caudal to bregma. A 2.0-mm diameter pneumatic impactor(Air-Power Inc., High Point, NC) was used to deliver a single midline impact to the center of the disc surface. The impactor was discharged at 6.8 ± 0.2 m/second with a head displacement of 3 mm. After impact, the animals were allowed to recover spontaneous ventilation and then the tracheas were extubated. Mice were allowed free access to food and water. Sham mice were treated identically except for the absence of impact. All mice were housed in the same facility.
# (§1) CN-105(Ac-VSRRR-amide) was synthesized by Polypeptide Inc.(San Diego, CA) to a purity of >99%, and was delivered in sterile normal saline. Animals were placed in a restrainer(Harvard Apparatus, Holliston, MA), and a single intravenous dose of drug(0.05 mg/kg) was administered by tail vein in a volume of 100 μL. Vehicle treated animals received intravenous injection of 100 μL of normal saline at the same time points. Animals were assigned to treatment group by a coded study identification number after injury using a paper randomization protocol. A block randomization scheme was used, so that an equal number of animals were randomized to each of the treatment groups during concurrent experiments.
# As described previously the Morris Water Maze assesses spatial learning and memory by testing the ability of mice to locate a submerged platform. The mice were placed in a pool(105 cm diameter) filled with room temperature(25 °C) water made opaque with fat free powdered milk and allowed up to 90 seconds to locate the submerged platform. The mice performed four trials/day for 4 consecutive days(inter-trial interval = 30 min). The mice were introduced in varying quadrants of the pool for each trial but the location of the platform never varied. The latency to locate the platform was recorded, and the 4 trials per day were averaged. Mice were tested on days 28–31 post-injury(n = 11–12 mice per group). A probe trial was administered on day 4 of the experiment 3 hours after the last test trial was completed. For the probe trial, the platform was removed and the mice were allowed to swim freely for 60 seconds. The percent of the time the mice spent in the platform quadrant was quantified.
# [2] = test system: microglia in hippocampus of TBI injured mice; experiment: F4/80 immunostained microglia, unbiased stereology; assay type: in vivo, mouse; conditions: 0.05 mg/kg, 10 days post TBI
# Experimental: (§2) To assess the effects of CN-105 on inflammation, neuronal injury and neuronal loss, immunohistochemical(IHC) staining was performed using the F4/80 antibody(a marker for mature microglia and macrophages; rat monoclonal, 1:10,000; Serotec, Raleigh, NC) and the Fluoro-Jade B stain(a marker of degenerating neurons; Histo-Chem Inc. Jefferson, AR) on days 10 and 1, respectively, after TBI. IHC was performed on separate cohorts of mice from those used in neurobehavioral tests. As previously described, mice were anesthetized, euthanized, and perfused with 30 ml phosphate-buffered saline(PBS) via transcardiac puncture. The brains were then immersed in buffered formalin overnight and saturated with 30% sucrose in buffer. Sagittal sections(40 μm) were sliced on a freezing microtome and collected in cryoprotectant solution. […]
# Prior to quantification, all slides were coded and the analyst was blinded to avoid experimenter bias. For the F4/80 quantification the brains of 5 TBI treated and 6 TBI vehicle treated mice(4–6 sections/mouse) were counted. Every eighth section of the dorsal hippocampus, according to the Paxinos and Franklin(2001) mouse brain atlas, was analyzed using the Stereo Investigator 7.0 software(MicroBrightField, Williston, VT). […] An average of 12 counting frames was analyzed per section, the grid size was 450 × 450 μm, and the dissector dimensions were 80 × 80 × 10 μm. […]
# [3] = test system: degenerating neurons in dentate gyrus of TBI mice; experiment: Fluoro-Jade B staining of degenerating neurons; assay type: in vivo, mouse; conditions: 0.05 mg/kg, 24 hours post-injury, 6 vehicle and 6 CN-105 mice, p < 0.00001
# Experimental: as §2
# For Fluoro-Jade B, brain sections from 12 TBI mice(6 vehicle and 6 CN-105) containing the dorsal hippocampus(5–6 sections per animal) were examined for degenerating neurons using an epifluorescence microscope(Nikon, Tokyo, Japan) with a medium band blue excitation(Nikon B-2A, 450–490 nm) filter set. […] Degenerating neurons were counted and the total number of Fluoro-Jade B-positive neurons per every eighth brain slice was recorded. […]
# TBI mice = experiment: Tolerability after injury; assay type: in vivo, mouse; conditions: treatment after injury
# Experimental: as §1
# [4] = test system: murine model of intracranial hemorrhage; conditions: cited from earlier work
# Source text: The possibility that the apoE mimetic peptide modifies sterile inflammation in the central nervous system is particularly relevant after traumatic brain injury, where glial activation and neuroinflammatory responses exacerbate secondary tissue injury. […] For example, there are a number of limitations inherent to all rodent models of traumatic brain injury. This includes the lissencephalic nature of rodent brains, which precludes testing of higher and more subtle cortical functions that are directly applicable to the clinical setting. Moreoever, rodent brains have reduced ratio of white: grey matter as compared to primates, and thus are not ideal to model the diffuse axonal injury that may occur in the clinical s ...
substance,measurement,setting,value
Ac-VSRRR-amide [CN-105],Morris Water Maze latency to platform compared to vehicle,"[1]; 0.05 mg/kg iv 2 h after TBI, days 28-31, p = 0.036",significantly reduced time to escape to the platform
same,Morris Water Maze probe trial compared to vehicle,"[1]; 0.05 mg/kg iv 2 h after TBI, p = 0.0079",performed better on the probe trial
same,Morris Water Maze swim speed compared to vehicle,"[1]; 0.05 mg/kg iv 2 h after TBI, p = 0.4968",no difference in swim speed
same,Morris Water Maze neurocognitive performance compared to vehicle,[1]; 0.05 mg/kg iv 4 hours post-injury,reduced deficit on Morris Water Maze testing
same,Morris Water Maze probe trial compared to vehicle,"[1]; 0.05 mg/kg iv 4 hours post-injury, p = 0.0211",performed better on the probe trial
same,Morris Water Maze swim speed compared to vehicle,"[1]; 0.05 mg/kg iv 4 hours post-injury, p = 0.0567",no significant difference in swim speed
same,density of F4/80 microglia in dorsal hippocampus compared to vehicle,"[2]; 5 treated and 6 vehicle mice, p = 0.0002",significant decrease in density of microglia
same,microglia morphology,[2]; hippocampus,almost exclusively small ramified microglia
same,"number of Fluoro-Jade B positive neurons, dorsal hippocampus, compared to vehicle",[3],significant decrease in the number of Fluoro-Jade B positive neurons
same,tolerability,TBI mice,well tolerated
same,functional outcome,[4]; model of intracranial hemorrhage,improves functional outcome
same,cerebral edema,[4]; murine model of intracranial hemorrhage,reduces cerebral edema
